The values that follow come from ChEMBL document CHEMBL1201862, “PubChem BioAssay data set” (2004).

The term IC50 denotes the midpoint of a concentration-inhibition curve. For orientation: AC50 means the concentration at which the activity in the assay is half-maximal. For orientation: CC50 means the concentration giving 50% cytotoxicity. As a reminder, the EC50 is the concentration that produces a half-maximal response.

Test [1] deals with Tyrosyl-DNA phosphodiesterase 2 (Homo sapiens, UniProt O95551). In words: human TDP2 enzyme inhibitors, dose response, biochemical, epi absorbance, IC50 (AID 743297).
Chain of Tyrosyl-DNA phosphodiesterase 2 (O95551 whole entry): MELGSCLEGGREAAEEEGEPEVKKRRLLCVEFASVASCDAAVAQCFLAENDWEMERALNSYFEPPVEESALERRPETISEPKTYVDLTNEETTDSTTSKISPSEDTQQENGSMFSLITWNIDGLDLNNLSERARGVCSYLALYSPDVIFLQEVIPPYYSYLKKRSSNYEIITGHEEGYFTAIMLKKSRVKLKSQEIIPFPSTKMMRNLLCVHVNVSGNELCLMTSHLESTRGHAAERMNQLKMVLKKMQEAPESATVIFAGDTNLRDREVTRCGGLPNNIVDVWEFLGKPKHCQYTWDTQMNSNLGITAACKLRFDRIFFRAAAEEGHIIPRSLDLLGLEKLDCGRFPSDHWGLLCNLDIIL
Test [2] deals with INS1. The experiment in a line: beta cell apoptosis inhibitors, cytokine rescue, dose response, luminescence, retest (AID 449756).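 Note: cell death triggered by IL-1 beta plus TNF-alpha plus IFN-gamma mixture; protective hits raise ATP signal compared with cytokine alone wells.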 Format: functional, cell-based. The following applies: Rattus norvegicus.
The target of test [3] is T1, Replicative DNA helicase DnaB (Mycobacterium tuberculosis, UniProt P9WMR3).
T1 sequence (P9WMR3 whole entry): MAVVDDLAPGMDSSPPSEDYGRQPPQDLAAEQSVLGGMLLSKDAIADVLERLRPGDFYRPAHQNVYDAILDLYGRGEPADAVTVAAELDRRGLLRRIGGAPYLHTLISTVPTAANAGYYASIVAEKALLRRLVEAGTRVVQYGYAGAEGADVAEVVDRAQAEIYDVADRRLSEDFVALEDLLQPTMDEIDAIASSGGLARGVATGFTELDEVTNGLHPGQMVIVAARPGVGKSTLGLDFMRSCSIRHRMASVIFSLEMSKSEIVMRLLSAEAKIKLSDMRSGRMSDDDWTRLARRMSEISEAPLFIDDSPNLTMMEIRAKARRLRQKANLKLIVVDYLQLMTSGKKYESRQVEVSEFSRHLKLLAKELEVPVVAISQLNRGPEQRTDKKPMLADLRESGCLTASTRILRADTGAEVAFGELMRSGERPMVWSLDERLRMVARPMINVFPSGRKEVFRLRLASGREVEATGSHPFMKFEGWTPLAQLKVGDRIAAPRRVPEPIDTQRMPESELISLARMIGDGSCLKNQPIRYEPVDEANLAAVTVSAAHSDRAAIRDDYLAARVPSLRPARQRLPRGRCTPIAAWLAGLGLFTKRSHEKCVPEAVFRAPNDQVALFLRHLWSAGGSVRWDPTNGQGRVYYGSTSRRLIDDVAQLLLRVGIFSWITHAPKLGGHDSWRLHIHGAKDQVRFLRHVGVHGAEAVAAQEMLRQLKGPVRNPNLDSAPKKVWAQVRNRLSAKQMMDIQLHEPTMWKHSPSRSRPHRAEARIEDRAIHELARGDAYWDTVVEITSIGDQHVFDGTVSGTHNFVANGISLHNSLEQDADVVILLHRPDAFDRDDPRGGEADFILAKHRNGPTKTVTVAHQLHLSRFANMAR
In words: DnaB intein splicing inhibitors, dose response, biochemical, cell-free fluorescence (AID 449749). Type of test: functional.

Test [4] concerns Vero. In words: Vero cell cytotoxicity, cytotoxicity control for flavivirus capping enzyme inhibitors (AID 588742). Type of test: functional. The following applies: Chlorocebus sabaeus.
Test [5] has as its target T2, Heat shock factor protein 1 (Mus musculus, UniProt P38532).
T2 sequence (P38532 whole entry): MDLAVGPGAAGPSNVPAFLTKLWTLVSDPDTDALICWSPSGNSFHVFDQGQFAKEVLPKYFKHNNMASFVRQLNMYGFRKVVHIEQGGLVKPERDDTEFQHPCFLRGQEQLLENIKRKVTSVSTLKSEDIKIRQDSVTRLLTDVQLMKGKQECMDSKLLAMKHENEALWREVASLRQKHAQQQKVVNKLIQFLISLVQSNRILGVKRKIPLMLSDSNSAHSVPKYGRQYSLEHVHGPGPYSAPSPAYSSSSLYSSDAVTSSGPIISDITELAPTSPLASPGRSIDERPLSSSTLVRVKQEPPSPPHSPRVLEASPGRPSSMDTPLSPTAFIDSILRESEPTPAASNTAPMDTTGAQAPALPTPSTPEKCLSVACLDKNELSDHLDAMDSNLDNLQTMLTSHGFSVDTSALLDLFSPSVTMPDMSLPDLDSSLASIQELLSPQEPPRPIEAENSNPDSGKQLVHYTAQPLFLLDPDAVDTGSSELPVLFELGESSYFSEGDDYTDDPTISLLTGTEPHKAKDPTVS
In words: HSF1 potentiators in luciferase reporter cells, confirmation, cell-based, NIH3T3, luminescence, dose retest (AID 435004).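 Note: stress induced by proteasome inhibitor MG132 added 30 min after compound; luciferase reporter driven by HSF1 response element in NIH3T3 cells; actives raise luminescence as potentiators of the MG132 stress response.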 Type of test: functional. On the technique in general: Reporter assays use an easily measured gene product as a stand-in for the process of interest.

Test [6] deals with T3, Protein RecA (Mycobacterium tuberculosis, UniProt P9WHJ3).
T3 sequence (P9WHJ3 whole entry): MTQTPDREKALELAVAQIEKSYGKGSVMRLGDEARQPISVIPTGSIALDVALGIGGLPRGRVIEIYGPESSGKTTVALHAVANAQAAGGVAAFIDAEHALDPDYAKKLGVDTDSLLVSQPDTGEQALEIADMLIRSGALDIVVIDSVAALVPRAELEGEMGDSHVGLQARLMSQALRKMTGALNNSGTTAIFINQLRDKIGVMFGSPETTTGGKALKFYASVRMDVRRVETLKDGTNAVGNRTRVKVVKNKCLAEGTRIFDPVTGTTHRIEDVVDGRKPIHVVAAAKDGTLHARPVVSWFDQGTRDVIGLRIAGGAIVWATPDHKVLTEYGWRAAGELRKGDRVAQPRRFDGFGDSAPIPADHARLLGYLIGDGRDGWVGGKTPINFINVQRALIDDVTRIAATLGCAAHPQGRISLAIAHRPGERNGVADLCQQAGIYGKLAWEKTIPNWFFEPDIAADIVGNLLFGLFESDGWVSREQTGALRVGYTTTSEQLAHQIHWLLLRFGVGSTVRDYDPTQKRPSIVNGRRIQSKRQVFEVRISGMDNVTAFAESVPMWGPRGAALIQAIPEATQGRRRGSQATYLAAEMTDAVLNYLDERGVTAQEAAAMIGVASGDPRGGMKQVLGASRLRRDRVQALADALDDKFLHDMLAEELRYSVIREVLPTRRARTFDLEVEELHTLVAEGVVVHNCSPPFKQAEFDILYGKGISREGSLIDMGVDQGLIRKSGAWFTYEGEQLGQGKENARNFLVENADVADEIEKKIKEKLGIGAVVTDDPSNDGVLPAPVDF
In words: Fluorescence Cell-Free Homogeneous Dose Retest to Identify Inhibitors of RecA-Intein Splicing Activity. [Related pubchem assays (depositor defined):AID2097, AID2223, AID489010, AID492950]. Format: functional.

The target of test [7] is T4, Zinc finger protein mex-5 (Caenorhabditis elegans, UniProt Q9XUB2).
T4 sequence (Q9XUB2 whole entry): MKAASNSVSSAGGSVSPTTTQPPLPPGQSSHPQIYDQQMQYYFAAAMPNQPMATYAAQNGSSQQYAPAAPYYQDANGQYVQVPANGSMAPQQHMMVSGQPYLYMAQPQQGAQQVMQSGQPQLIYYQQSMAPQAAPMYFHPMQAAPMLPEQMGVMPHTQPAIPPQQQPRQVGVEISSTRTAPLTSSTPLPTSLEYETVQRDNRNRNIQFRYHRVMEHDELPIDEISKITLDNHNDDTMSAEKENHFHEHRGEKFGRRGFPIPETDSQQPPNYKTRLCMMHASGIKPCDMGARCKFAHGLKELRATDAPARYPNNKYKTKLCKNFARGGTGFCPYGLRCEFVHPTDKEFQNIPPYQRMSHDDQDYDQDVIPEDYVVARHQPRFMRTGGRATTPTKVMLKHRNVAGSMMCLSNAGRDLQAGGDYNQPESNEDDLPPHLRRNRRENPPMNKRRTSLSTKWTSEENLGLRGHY
The experiment in a line: MEX-5/TCR-2 RNA interaction inhibitors, dose response, biochemical, C. elegans, fluorescence polarization (AID 1960).

Activity calls are given as the source filed them.

Regarding `Cc1ccc(NC2=CC(=O)C(=O)c3ccccc32)cc1`, in test [1], the IC50 is 26.2 µM (inactive). Moreover, the values for the AC50 in test [2] and in test [3] were 2.63 µM (active) and 0.971 µM (active), respectively. Also, in test [4], the CC50 was 11.4 µM (active). The 50% effective concentration (EC50) in test [5] is 7.04 µM (active); in test [6], 0.999 µM (active).

For `O=C(O)c1ccc(S(=O)(=O)/N=C2\C=C(Nc3ccccc3F)C(=O)c3ccccc32)cc1`, the AC50 in test [2] was 2.61 µM (active); in test [3], 0.146 µM (active). Further, the CC50 in test [4] was 26.4 µM (active). Also, the EC50 in test [5] was > 260 µM (inconclusive); in test [7], 60.8 µM (active); in test [6], 0.0663 µM (active).
